Test results: ChEMBL document CHEMBL4004891, “Antioxidant Properties of Novel Dimers Derived from Natural β-Elemene through Inhibiting H2O2-Induced Apoptosis” (ACS Med Chem Lett, 2017)
Activity calls are given as the source filed them. The calls are words filed in the database; no cut-off is given here.

System: HUVEC
Assay: Cytoprotective activity against H2O2-induced cell injury in HUVEC assessed as increase in cell viability at 100 uM pretreated for 24 hrs followed by H2O2-stimulation after 2 hrs by MTT assay
Format: functional, cell-based
Details: Homo sapiens

Compound	Activity
VITAMIN E	Active

System: HUVEC
Assay: Cytoprotective activity against H2O2-induced cell injury in HUVEC assessed as increase in cell viability at 10 uM pretreated for 24 hrs followed by H2O2-stimulation after 2 hrs by MTT assay
Format: functional, cell-based
Details: Homo sapiens

Compound	Activity
C=C[C@]1(C)CC[C@@H](C(=C)COC(=O)c2cccc3cccc(C(=O)OCC(=C)[C@@H]4CC[C@@](C)(C=C)[C@H](C(=C)C)C4)c23)C[C@H]1C(=C)C	Active
C=C[C@]1(C)CC[C@@H](C(=C)COC(=O)CCC(=O)OCC(=C)[C@@H]2CC[C@@](C)(C=C)[C@H](C(=C)C)C2)C[C@H]1C(=C)C	Active
C=C[C@]1(C)CC[C@@H](C(=C)COC(=O)C(=O)OCC(=C)[C@@H]2CC[C@@](C)(C=C)[C@H](C(=C)C)C2)C[C@H]1C(=C)C	Active
C=C[C@]1(C)CC[C@@H](C(=C)COC(=O)CCN2CCN(CCC(=O)OCC(=C)[C@@H]3CC[C@@](C)(C=C)[C@H](C(=C)C)C3)CC2)C[C@H]1C(=C)C	Active
C=C[C@]1(C)CC[C@@H](C(=C)COC(=O)CCCCCn2cc(C(=O)OCC(=C)[C@@H]3CC[C@@](C)(C=C)[C@H](C(=C)C)C3)nn2)C[C@H]1C(=C)C	Active
C=C[C@]1(C)CC[C@@H](C(=C)COC(=O)c2cn(CCCCn3cc(C(=O)OCC(=C)[C@@H]4CC[C@@](C)(C=C)[C@H](C(=C)C)C4)nn3)nn2)C[C@H]1C(=C)C	Active
C=C[C@]1(C)CC[C@@H](C(=C)COC(=O)c2cccc(C(=O)OCC(=C)[C@@H]3CC[C@@](C)(C=C)[C@H](C(=C)C)C3)c2)C[C@H]1C(=C)C	Active
C=C[C@]1(C)CC[C@@H](C(=C)COC(=O)CC(=O)OCC(=C)[C@@H]2CC[C@@](C)(C=C)[C@H](C(=C)C)C2)C[C@H]1C(=C)C	Active
C=C[C@]1(C)CC[C@@H](C(=C)COC(=O)CCCn2cc(C(=O)OCC(=C)[C@@H]3CC[C@@](C)(C=C)[C@H](C(=C)C)C3)nn2)C[C@H]1C(=C)C	Active
C=C[C@]1(C)CC[C@@H](C(=C)COC(=O)c2ccc(C(=O)OCC(=C)[C@@H]3CC[C@@](C)(C=C)[C@H](C(=C)C)C3)cc2)C[C@H]1C(=C)C	Active
C=C[C@]1(C)CC[C@@H](C(=C)CN2CCN(CC(=C)[C@@H]3CC[C@@](C)(C=C)[C@H](C(=C)C)C3)CC2)C[C@H]1C(=C)C	Active
C=C[C@]1(C)CC[C@@H](C(=C)COCc2cn(CCCC(=O)OCC(=C)[C@@H]3CC[C@@](C)(C=C)[C@H](C(=C)C)C3)nn2)C[C@H]1C(=C)C	Active
C=C[C@]1(C)CC[C@@H](C(=C)COC(=O)CCCN(C)CCN(C)CCCC(=O)OCC(=C)[C@@H]2CC[C@@](C)(C=C)[C@H](C(=C)C)C2)C[C@H]1C(=C)C	Active
C=C[C@]1(C)CC[C@@H](C(=C)COC(=O)CCC(=O)N2CCN(C(=O)CCC(=O)OCC(=C)[C@@H]3CC[C@@](C)(C=C)[C@H](C(=C)C)C3)CC2)C[C@H]1C(=C)C	Active
C=C[C@]1(C)CC[C@@H](C(=C)COC(=O)CCN(C)CCN(C)CCC(=O)OCC(=C)[C@@H]2CC[C@@](C)(C=C)[C@H](C(=C)C)C2)C[C@H]1C(=C)C	Active
C=C[C@]1(C)CC[C@@H](C(=C)COC(=O)CCCC(=O)OCC(=C)[C@@H]2CC[C@@](C)(C=C)[C@H](C(=C)C)C2)C[C@H]1C(=C)C	Active
C=C[C@]1(C)CC[C@@H](C(=C)COC(=O)C[C@H](N)C(=O)OCC(=C)[C@@H]2CC[C@@](C)(C=C)[C@H](C(=C)C)C2)C[C@H]1C(=C)C	Active
C=C[C@]1(C)CC[C@@H](C(=C)COCc2cn(CCCCC(=O)OCC(=C)[C@@H]3CC[C@@](C)(C=C)[C@H](C(=C)C)C3)nn2)C[C@H]1C(=C)C	Active
C=C[C@]1(C)CC[C@@H](C(=C)COC(=O)COCC(=O)OCC(=C)[C@@H]2CC[C@@](C)(C=C)[C@H](C(=C)C)C2)C[C@H]1C(=C)C	Active
C=C[C@]1(C)CC[C@@H](C(=C)COC(=O)CCCCn2cc(C(=O)OCC(=C)[C@@H]3CC[C@@](C)(C=C)[C@H](C(=C)C)C3)nn2)C[C@H]1C(=C)C	Active
C=C[C@]1(C)CC[C@@H](C(=C)COCc2cn(CCCCn3cc(COCC(=C)[C@@H]4CC[C@@](C)(C=C)[C@H](C(=C)C)C4)nn3)nn2)C[C@H]1C(=C)C	Active
C=C[C@]1(C)CC[C@@H](C(=C)COCc2cn(CCCCCC(=O)OCC(=C)[C@@H]3CC[C@@](C)(C=C)[C@H](C(=C)C)C3)nn2)C[C@H]1C(=C)C	Active
C=C[C@]1(C)CC[C@@H](C(=C)COC(=O)CC[C@H](N)C(=O)OCC(=C)[C@@H]2CC[C@@](C)(C=C)[C@H](C(=C)C)C2)C[C@H]1C(=C)C	Active
C=C[C@]1(C)CC[C@@H](C(=C)COC(=O)c2cn(CCCCCCn3cc(C(=O)OCC(=C)[C@@H]4CC[C@@](C)(C=C)[C@H](C(=C)C)C4)nn3)nn2)C[C@H]1C(=C)C	Active
C=C[C@]1(C)CC[C@@H](C(=C)CN(C)CCN(C)CC(=C)[C@@H]2CC[C@@](C)(C=C)[C@H](C(=C)C)C2)C[C@H]1C(=C)C	Active
C=C[C@]1(C)CC[C@@H](C(=C)COCc2cn(CCCCCCn3cc(COCC(=C)[C@@H]4CC[C@@](C)(C=C)[C@H](C(=C)C)C4)nn3)nn2)C[C@H]1C(=C)C	Active
C=C[C@]1(C)CC[C@@H](C(=C)COCCCCOCC(=C)[C@@H]2CC[C@@](C)(C=C)[C@H](C(=C)C)C2)C[C@H]1C(=C)C	Active
C=C[C@]1(C)CC[C@@H](C(=C)COC(=O)CCCN2CCN(CCCC(=O)OCC(=C)[C@@H]3CC[C@@](C)(C=C)[C@H](C(=C)C)C3)CC2)C[C@H]1C(=C)C	Active
C=C[C@]1(C)CC[C@@H](C(=C)COC(=O)[C@@H]2[C@H](C(=O)OCC(=C)[C@@H]3CC[C@@](C)(C=C)[C@H](C(=C)C)C3)[C@@H]3C=C[C@H]2C3)C[C@H]1C(=C)C	Active
